Assay results reported in patent US11884659B1, “1-cyclopropyl-6-fluoro-4-oxo-7-(4-((5-(quinolin-2-ylmethyleneamino)-2-thioxo-1,3,4- thiadiazol-3(2H)-yl)methyl) piperazin-1-yl)-1,4-dihydroquinoline-3-carboxylic acid as an anti-inflammatory compound” (KING FAISAL UNIVERSITY, priority 2023, dated 2024).

Experiments:
[1] = molecular target: BSA (Bos taurus, UniProt P02769); assay: Bovine Serum Albumin Assay (BSA), inhibition of heat-induced protein denaturation; settings: 20, 40, 60, 80 and 100 μg/mL; 0.4% w/v BSA, pH 6.4, 72° C. for 10 minutes; turbidity at 660 nm
Sequence of BSA (P02769 25-607): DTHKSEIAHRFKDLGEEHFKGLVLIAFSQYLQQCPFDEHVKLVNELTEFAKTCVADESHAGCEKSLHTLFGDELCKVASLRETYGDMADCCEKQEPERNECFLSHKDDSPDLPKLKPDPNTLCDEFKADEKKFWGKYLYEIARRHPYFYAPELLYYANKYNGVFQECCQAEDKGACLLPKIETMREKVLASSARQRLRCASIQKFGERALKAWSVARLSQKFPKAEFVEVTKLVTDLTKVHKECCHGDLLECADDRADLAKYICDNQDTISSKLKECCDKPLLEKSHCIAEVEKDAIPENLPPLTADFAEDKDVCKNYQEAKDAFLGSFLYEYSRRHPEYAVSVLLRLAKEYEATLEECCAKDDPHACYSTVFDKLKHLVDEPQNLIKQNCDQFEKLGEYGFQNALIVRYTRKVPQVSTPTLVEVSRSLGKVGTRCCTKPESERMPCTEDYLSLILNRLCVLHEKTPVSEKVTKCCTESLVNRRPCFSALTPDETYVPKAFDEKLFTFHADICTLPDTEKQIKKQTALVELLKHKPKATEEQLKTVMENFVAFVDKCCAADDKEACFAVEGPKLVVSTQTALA
Method: Bovine Serum Albumin Assay (BSA)
In vitro-inflammatory activities of the tested samples were determined using a modified method of the BSA assay reported by Williams et al. BSA solution (0.4%, w/v) was prepared in Tris Buffered Saline. The pH was adjusted to 6.4 with glacial acetic acid. Different dilutions of 20, 40, 60, 80, and 100 μg/mL of 1-cyclopropyl-6-fluoro-4-oxo-7-(4-((5-(quinolin-2-ylmethyleneamino)-2-thioxo-1,3,4-thiadiazol-3(2H)-yl)methyl)piperazin-1-yl)-1,4-dihydroquinoline-3-carboxylic acid (IV) the stock solutions were added to test tubes containing 1 mL of 0.4%, w/v BSA buffer solution. Both negative (solvent) and positive (aspirin) controls were assayed in a similar manner. The solutions were then heated in a water bath at 72° C. for 10 minutes and cooled for 20 minutes under laboratory conditions. The turbidity of the solutions (level of protein precipitation) was measured at 660 nm in Spectrophotometer (V-770 UV-Visible/NIR Spectrophotometer). The percentage inhibition of precipitation (protein denaturation) was determined relative to the negative control using the following equation:
[formula] [formula] Anti-Inflammatory Activity

In the case of O=C(O)c1cn(C2CC2)c2cc(N3CCN(Cn4nc(/N=C/c5ccc6ccccc6n5)sc4=S)CC3)c(F)cc2c1=O [IV, 1-cyclopropyl-6-fluoro-4-oxo-7-(4-((5-(quinolin-2-ylmethyleneamino)-2-thioxo-1,3,4-thiadiazol-3(2H)-yl)methyl)piperazin-1-yl)-1,4-dihydroquinoline-3-carboxylic acid], the “in vitro anti-inflammatory activity (inhibition of protein denaturation)” value [1] is reported as “considerable anti-inflammatory effect” and the melting point is reported as 232 to 235 °C.
